Results as given in patent US11214594B2, “Antimicrobial peptide having synergistic antibacterial effect with antibiotics on multidrug resistant bacteria, and use thereof” (priority 2016, dated 2022).
In brackets after ≈: the same amount, converted by molar mass. Like-named read-outs stand apart in the source and are kept apart here. Where a SMILES comes first, the peptide text is derived from it. [ ]: non-standard residue; d: D form.

Tests used:
MDRAB 12035 [1] = assay: MIC of antibiotic during combined treatment with antimicrobial peptide; assay type: cell-based, Acinetobacter baumannii
Description: Specifically, the strains described in [Table 2] were prepared and diluted with an MH medium such that the number of bacteria was 2×10^6 colony-forming units (CFUs) per 1 ml, 100 μl of the diluted strains was each aliquoted into a 96-well microtiter plate, and then 50 μl of a peptide solution diluted with the MH medium from the MIC value (solution diluted stepwise at 2: 1) was added to each well. Thereafter, the MIC value of each mixed solution was determined by diluting the antibiotic solution with the MH medium, adding 50 μl of the diluted solution to each well, and performing an experiment even under a reversed condition.

P. aeruginosa = assay: microbe, parasite or virus in culture; assay type: cell-based, Pseudomonas aeruginosa
In short: (§1)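 Each strain is brought to 2×10^6 CFU in nutrient-sufficient Mueller-Hinton medium and dispensed into wells. Peptide solutions, stepwise diluted 2:1 in the same medium, are then added. The minimal concentration preventing growth gives the MIC.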

B. subtilis = assay: microbe, parasite or virus in culture; assay type: cell-based, Bacillus subtilis
In short: as §1

MDREC 1229 = assay type: cell-based, Escherichia coli
In short: (§2)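 Antibiotic MIC came from antibiotic dilutions added to bacteria (2×10^6 CFU/ml, MH medium) already combined with peptide serially diluted 2:1 from its own MIC. Swapping the roles of the two agents gave the peptide MIC.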

E. coli = assay type: cell-based, Escherichia coli; conditions: E. coli
In short: as §2

MDRPA 2003 = assay type: cell-based, Pseudomonas aeruginosa
In short: as §1

MDRPA 2002 = assay type: cell-based, Pseudomonas aeruginosa
In short: as §1

MDREC 1238 = assay type: cell-based, Escherichia coli
In short: as §1

A. baumannii = assay: MIC of antimicrobial peptide during combined treatment with antibiotic; assay type: cell-based, Acinetobacter baumannii
In short: as §2

MDRAB 12035 [2] = assay: as above; assay type: cell-based, Acinetobacter baumannii
In short: as §2

[3] = peptide treatment concentration 32 μg/ml
[4] = peptide treatment concentration 64 μg/ml
[5] = linezolid 64 μg/ml (Conc./MIC 1/8)
[6] = linezolid 512 μg/ml (Conc./MIC 1)
[7] = vancomycin 512 μg/ml (Conc./MIC 1/2)
[8] = vancomycin 1024 μg/ml (Conc./MIC 1)
[9] = erythromycin 4 μg/ml (Conc./MIC 1/8)
[10] = erythromycin 8 μg/ml (Conc./MIC 1/4)
[11] = erythromycin 16 μg/ml (Conc./MIC 1/2)
[12] = erythromycin 32 μg/ml (Conc./MIC 1)

## CC[C@H](C)[C@H](NC(=O)[C@H](CCCCN)NC(=O)[C@H](Cc1c[nH]c2ccccc12)NC(=O)[C@@H](N)CCCNC(=N)N)C(=O)N[C@@H](Cc1ccccc1)C(=O)N[C@@H](CCCCN)C(=O)N[C@@H](CCCCN)C(=O)N[C@H](C(=O)N[C@H](CCCCN)C(=O)N[C@@H](CCCCN)C(=O)N[C@@H](CC(C)C)C(=O)N[C@@H](CC(C)C)C(=O)N[C@@H](Cc1c[nH]cn1)C(=O)N[C@@H](CCCCN)C(=O)N[C@@H](C)C(=O)N[C@@H](CCCCN)C(=O)N[C@@H](CCCCN)C(=O)N[C@@H](Cc1c[nH]c2ccccc12)C(N)=O)[C@@H](C)CC [PapMA-18, RWK IFK KIk KLL HKA KKW-NH2] (H-RWKIFKKI[dK]KLLHKAKKW-NH2; N-terminus assumed)
MDRAB 12035 [1]; peptide treatment concentration 16 μg/ml
  Vancomycin MIC during combined treatment with peptide: 16 µg/mL
MDRAB 12035 [1]; [3]
  Erythromycin MIC during combined treatment with peptide: 0 µg/mL
  Linezolid MIC during combined treatment with peptide: 0 µg/mL
  Vancomycin MIC during combined treatment with peptide: 0 µg/mL
MDRAB 12035 [1]; [4]
  Erythromycin MIC during combined treatment with peptide: 0 µg/mL
  Linezolid MIC during combined treatment with peptide: 0 µg/mL
  Vancomycin MIC during combined treatment with peptide: 0 µg/mL
P. aeruginosa
  Minimal inhibitory concentration MIC: 32 µg/mL (≈ 13.5 µM)
B. subtilis
  Minimal inhibitory concentration MIC: >128 µg/mL
MDREC 1229; erythromycin 32 μg/ml (Conc./MIC 1/8)
  Peptide MIC during treatment with antibiotic: 2 µg/mL
MDREC 1229; erythromycin 64 μg/ml (Conc./MIC 1/4)
  Peptide MIC during treatment with antibiotic: 2 µg/mL
MDREC 1229; erythromycin […] (Conc./MIC 1)
  Peptide MIC during treatment with antibiotic: 0 µg/mL
MDREC 1229; erythromycin […] (Conc./MIC 1/2)
  Peptide MIC during treatment with antibiotic: 2 µg/mL
MDREC 1229; [5]
  Peptide MIC during treatment with antibiotic: 4 µg/mL
MDREC 1229; [6]
  Peptide MIC during treatment with antibiotic: 0 µg/mL
MDREC 1229; linezolid […] (Conc./MIC 1/2)
  Peptide MIC during treatment with antibiotic: 1 µg/mL
MDREC 1229; linezolid […] (Conc./MIC 1/4)
  Peptide MIC during treatment with antibiotic: 4 µg/mL
MDREC 1229; [7]
  Peptide MIC during treatment with antibiotic: 2 µg/mL
MDREC 1229; [8]
  Peptide MIC during treatment with antibiotic: 1 µg/mL
MDREC 1229; vancomycin […] (Conc./MIC 1/4)
  Peptide MIC during treatment with antibiotic: 4 µg/mL
MDREC 1229; vancomycin […] (Conc./MIC 1/8)
  Peptide MIC during treatment with antibiotic: 8 µg/mL
E. coli; with Erythromycin […] (Conc./MIC 1)
  Peptide MIC: 0 µg/mL
E. coli; with Linezolid […] (Conc./MIC 1)
  Peptide MIC: 0 µg/mL
E. coli; with Vancomycin 1024 μg/ml (Conc./MIC 1)
  Peptide MIC: 0 µg/mL
MDRPA 2003
  Minimal inhibitory concentration MIC: 64 µg/mL (≈ 26.9 µM)
MDRPA 2002
  Minimal inhibitory concentration MIC: 32 µg/mL (≈ 13.5 µM)
MDREC 1238
  Minimal inhibitory concentration MIC: 64 µg/mL (≈ 26.9 µM)
A. baumannii; [9]
  Peptide MIC during treatment with antibiotic: 4 µg/mL
A. baumannii; [10]
  Peptide MIC during treatment with antibiotic: 4 µg/mL
A. baumannii; [11]
  Peptide MIC during treatment with antibiotic: 4 µg/mL
A. baumannii; [12]
  Peptide MIC during treatment with antibiotic: 0 µg/mL
A. baumannii; linezolid 32 μg/ml (Conc./MIC 1/8)
  Peptide MIC during treatment with antibiotic: 8 µg/mL
A. baumannii; linezolid 64 μg/ml (Conc./MIC 1/4)
  Peptide MIC during treatment with antibiotic: 4 µg/mL
A. baumannii; linezolid […] (Conc./MIC 1)
  Peptide MIC during treatment with antibiotic: 0 µg/mL
A. baumannii; linezolid […] (Conc./MIC 1/2)
  Peptide MIC during treatment with antibiotic: 2 µg/mL
A. baumannii; [7]
  Peptide MIC during treatment with antibiotic: 0.25 µg/mL
A. baumannii; [8]
  Peptide MIC during treatment with antibiotic: 0 µg/mL
A. baumannii; vancomycin […] (Conc./MIC 1/4)
  Peptide MIC during treatment with antibiotic: 0.5 µg/mL
A. baumannii; vancomycin […] (Conc./MIC 1/8)
  Peptide MIC during treatment with antibiotic: 4 µg/mL
MDRAB 12035 [2]; [9]
  Peptide MIC during treatment with erythromycin: 4 µg/mL
MDRAB 12035 [2]; [10]
  Peptide MIC during treatment with erythromycin: 4 µg/mL
MDRAB 12035 [2]; [11]
  Peptide MIC during treatment with erythromycin: 4 µg/mL
MDRAB 12035 [2]; [12]
  Peptide MIC during treatment with erythromycin: 0 µg/mL
MDRAB 12035 [2]; [5]
  Peptide MIC during treatment with linezolid: 4 µg/mL
MDRAB 12035 [2]; [6]
  Peptide MIC during treatment with linezolid: 0 µg/mL
MDRAB 12035 [2]; linezolid […] (Conc./MIC 1/2)
  Peptide MIC during treatment with linezolid: 1 µg/mL
MDRAB 12035 [2]; linezolid […] (Conc./MIC 1/4)
  Peptide MIC during treatment with linezolid: 4 µg/mL
MDRAB 12035 [2]; [7]
  Peptide MIC during treatment with vancomycin: 2 µg/mL
MDRAB 12035 [2]; [8]
  Peptide MIC during treatment with vancomycin: 1 µg/mL
MDRAB 12035 [2]; vancomycin […] (Conc./MIC 1/4)
  Peptide MIC during treatment with vancomycin: 4 µg/mL
MDRAB 12035 [2]; vancomycin […] (Conc./MIC 1/8)
  Peptide MIC during treatment with vancomycin: 4 µg/mL
